Results taken from ChEMBL document CHEMBL2202969, “Discovery and evolution of phenoxypiperidine hydroxyamide dual CCR3/H₁ antagonists. Part I” (Bioorg Med Chem Lett, 2012).

Experiments:
[1] = target: T1, C-C chemokine receptor type 3 (Homo sapiens, UniProt P51677); assay: Displacement of [3H]-4-(2,4-dichloro-3-methylphenoxy)-l'-[4- (methylsulfonyl)benzoyl]-l,4'-bipiperidine from human recombinant CCR3 expressed in CHOK1 cells after 2 hrs by scintillation counting analysis; type: cell-based, CHO-K1
T1 sequence (P51677 whole entry): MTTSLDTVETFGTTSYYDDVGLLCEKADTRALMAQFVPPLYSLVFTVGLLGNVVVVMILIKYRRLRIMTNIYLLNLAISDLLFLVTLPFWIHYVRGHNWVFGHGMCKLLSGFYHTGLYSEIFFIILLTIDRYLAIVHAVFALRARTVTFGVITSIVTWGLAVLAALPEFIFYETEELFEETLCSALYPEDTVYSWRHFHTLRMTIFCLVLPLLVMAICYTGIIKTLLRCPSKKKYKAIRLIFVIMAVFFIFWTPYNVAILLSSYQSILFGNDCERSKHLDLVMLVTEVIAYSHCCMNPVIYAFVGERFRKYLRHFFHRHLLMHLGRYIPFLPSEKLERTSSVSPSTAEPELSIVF

[2] = target: C-C chemokine receptor type 3 (Homo sapiens) (UniProt P51677); assay: Displacement of radioligand from human CCR3 expressed in recombinant CHOK1 cells at 1 uM after 1 hr; settings: CHO-K1
physchem = settings: octanol/water
Histamine H1 receptor [3] = target: T2, Histamine H1 receptor (Homo sapiens, UniProt P35367); assay: Displacement of [3H]-pyrilamine from human histamine H1 receptor expressed in recombinant CHOK1 cells after 1 hr; type: cell-based, CHO-K1
T2 sequence (P35367 whole entry): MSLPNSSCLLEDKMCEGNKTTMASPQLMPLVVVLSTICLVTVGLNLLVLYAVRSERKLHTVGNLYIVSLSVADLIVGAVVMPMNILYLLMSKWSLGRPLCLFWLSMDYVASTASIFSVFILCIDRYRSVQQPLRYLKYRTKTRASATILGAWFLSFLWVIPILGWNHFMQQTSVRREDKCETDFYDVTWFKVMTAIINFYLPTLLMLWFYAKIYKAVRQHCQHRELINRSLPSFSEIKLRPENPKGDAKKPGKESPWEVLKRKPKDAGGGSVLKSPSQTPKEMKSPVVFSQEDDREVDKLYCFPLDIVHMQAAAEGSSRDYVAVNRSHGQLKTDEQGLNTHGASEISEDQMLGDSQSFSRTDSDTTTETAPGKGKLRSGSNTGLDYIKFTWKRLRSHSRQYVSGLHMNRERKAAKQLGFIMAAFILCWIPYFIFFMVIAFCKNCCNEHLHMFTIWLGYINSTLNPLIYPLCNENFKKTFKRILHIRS

in vitro [4] = settings: rat, hepatocytes
[5] = target: T3, C-C chemokine receptor type 3 (Homo sapiens) (UniProt P51677); assay: Displacement of [3H]-4-(2,4-dichloro-3-methylphenoxy)-l'-[4- (methylsulfonyl)benzoyl]-l,4'-bipiperidine from human recombinant CCR3 expressed in CHOK1 cells at 1 uM after 2 hrs by scintillation counting analysis; type: cell-based; settings: CHO-K1
T3 sequence (whole entry): T1 sequence (P51677 whole entry)

in vitro [6] = settings: rat
[7] = target: Voltage-gated inwardly rectifying potassium channel KCNH2 (Homo sapiens, UniProt Q12809)
Sequence of Voltage-gated inwardly rectifying potassium channel KCNH2 (Q12809 whole entry): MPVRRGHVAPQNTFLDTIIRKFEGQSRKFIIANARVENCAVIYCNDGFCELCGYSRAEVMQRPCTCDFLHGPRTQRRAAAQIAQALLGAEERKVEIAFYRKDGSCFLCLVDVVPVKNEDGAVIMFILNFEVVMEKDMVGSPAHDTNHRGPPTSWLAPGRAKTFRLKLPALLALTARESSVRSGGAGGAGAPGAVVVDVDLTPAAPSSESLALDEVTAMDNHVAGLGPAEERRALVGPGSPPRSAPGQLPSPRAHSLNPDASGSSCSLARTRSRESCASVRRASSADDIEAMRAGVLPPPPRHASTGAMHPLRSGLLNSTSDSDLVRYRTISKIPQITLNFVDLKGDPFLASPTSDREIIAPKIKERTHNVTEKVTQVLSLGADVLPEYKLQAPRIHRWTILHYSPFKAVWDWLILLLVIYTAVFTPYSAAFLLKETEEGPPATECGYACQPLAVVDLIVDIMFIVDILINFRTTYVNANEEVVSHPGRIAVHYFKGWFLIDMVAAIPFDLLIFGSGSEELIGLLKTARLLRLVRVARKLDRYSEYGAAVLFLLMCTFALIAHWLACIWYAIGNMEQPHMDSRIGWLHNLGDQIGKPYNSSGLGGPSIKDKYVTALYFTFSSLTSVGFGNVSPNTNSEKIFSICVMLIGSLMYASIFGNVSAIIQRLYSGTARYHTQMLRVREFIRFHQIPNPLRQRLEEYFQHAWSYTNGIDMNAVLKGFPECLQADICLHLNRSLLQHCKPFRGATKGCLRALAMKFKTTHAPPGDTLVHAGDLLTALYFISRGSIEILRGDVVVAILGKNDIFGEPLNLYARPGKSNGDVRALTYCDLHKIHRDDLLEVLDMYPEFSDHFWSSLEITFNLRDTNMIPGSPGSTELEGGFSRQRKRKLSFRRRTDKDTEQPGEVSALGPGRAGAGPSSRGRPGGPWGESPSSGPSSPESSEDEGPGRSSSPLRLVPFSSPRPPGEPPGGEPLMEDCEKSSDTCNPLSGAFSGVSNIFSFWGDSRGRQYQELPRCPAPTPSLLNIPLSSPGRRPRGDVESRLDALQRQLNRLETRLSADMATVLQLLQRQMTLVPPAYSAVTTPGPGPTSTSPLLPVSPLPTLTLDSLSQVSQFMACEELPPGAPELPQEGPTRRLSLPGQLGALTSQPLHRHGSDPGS

in vitro [8] = settings: human
in vivo [9] = settings: rat
in vivo [10] = settings: rat; remark: listed apart in the source
in vivo [11] = settings: rat; remark: listed apart in the source
in vitro [12] = settings: human, hepatocytes
[13] = target: T4, C-C chemokine receptor type 1 (Homo sapiens, UniProt P32246); assay: Antagonist activity at CCR1; type: functional
T4 sequence (P32246 whole entry): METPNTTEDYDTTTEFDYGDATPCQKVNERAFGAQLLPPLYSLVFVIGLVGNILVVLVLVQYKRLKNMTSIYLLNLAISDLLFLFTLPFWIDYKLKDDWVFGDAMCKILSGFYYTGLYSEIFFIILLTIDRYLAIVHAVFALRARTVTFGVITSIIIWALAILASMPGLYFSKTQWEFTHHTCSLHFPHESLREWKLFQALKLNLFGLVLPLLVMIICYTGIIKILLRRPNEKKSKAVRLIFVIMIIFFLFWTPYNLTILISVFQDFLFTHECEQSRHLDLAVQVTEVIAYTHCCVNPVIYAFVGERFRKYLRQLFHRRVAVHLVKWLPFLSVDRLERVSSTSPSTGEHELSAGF

Histamine H1 receptor [14] = target: T2, Histamine H1 receptor; assay: Antagonist activity at histamine H1 receptor; type: functional
[15] = Oral bioavailability in rat; type: ADME, organism-based; settings: in vivo

SMILES	Ki [1] [nM]	inhibition [2] [%]	logD (physchem)	Ki (Histamine H1 receptor [3]) [nM]	inhibition [5] [%]	microsomal CLint (in vitro [6]; liver microsomes) [µL/min/mg]	IC50 [7] [nM]	microsomal CLint (in vitro [8]; liver microsomes) [µL/min/mg]	further results
N#Cc1cccc(OC[C@@H](O)CNC2CCN(Cc3ccc(Cl)c(Cl)c3)CC2)c1	316	> 70	3.1	501	> 70	23			hepatocyte CLint (in vitro [4]): 7 µL/min/1e6 cells
O=C(NC[C@@H](O)CN1CCC(Oc2ccc(Cl)c(Cl)c2)CC1)c1n[nH]c2ccccc12	1.58	> 70	2.9	7.94	> 70		251		
O=C(NC[C@@H](O)CN1CCC(Oc2ccc(Cl)c(Cl)c2)CC1)c1cc(=O)[nH]c2ccccc12	7.94	> 70	3.5	3.98	> 70		> 10000		
N#Cc1cccc(OC[C@@H](O)CCN2CCC(Oc3ccc(Cl)c(Cl)c3)CC2)c1	31.6	> 70	> 4.5	0.316	> 70	22		< 3	
CS(=O)(=O)c1ccccc1C(=O)NCC(O)CNC1CCN(Cc2ccc(Cl)c(Cl)c2)CC1 (configuration not stated)	79.4		1.2	1260	> 70	< 3			clearance (in vivo [9]): 54 mL/min/kg; hepatocyte CLint (in vitro [4]): 4 µL/min/1e6 cells; Vd (in vivo [10]): 9 L/kg; half-life (in vivo [11]): 2.3 h
O[C@@H](CNC1CCN(Cc2ccc(Cl)c(Cl)c2)CC1)COc1ccc2ncsc2c1	158	> 70		316	> 70			< 3	
O=C(NC[C@@H](O)CN1CCC(Oc2ccc(Cl)c(Cl)c2)CC1)c1cn2cc(F)ccc2n1	200	> 70	3.3	15.8	> 70	19			hepatocyte CLint (in vitro [4]): 7 µL/min/1e6 cells
O=C(NC[C@@H](O)CN1CCC(Oc2ccc(Cl)c(Cl)c2)CC1)c1cnnc2ccccc12	12.6	> 70	3.3	12.6	> 70		6310		
CS(=O)(=O)c1ccccc1C(=O)NC[C@@H](O)CN1CCC(Oc2ccc(Cl)c(Cl)c2)CC1	15.8	> 70	2.3	200	> 70	8			hepatocyte CLint (in vitro [12]): < 2 µL/min/1e6 cells; hepatocyte CLint (in vitro [4]): < 3 µL/min/1e6 cells
N#Cc1ccc(OC[C@@H](O)CNC2CCN(Cc3ccc(Cl)c(Cl)c3)CC2)cc1	126	> 70		501	> 70			< 3	
O=C(NC[C@@H](O)CN1CCC(Oc2ccc(Cl)c(Cl)c2)CC1)c1c[nH]c2ccccc12	2.51		3.9	31.6	> 70		2000		
N#Cc1cccc(C(=O)NC[C@@H](O)CN2CCC(Oc3ccc(Cl)c(Cl)c3)CC2)c1	20	> 70	3.5	20	> 70				microsomal CLint (in vitro [8]; microsomes): 4 µL/min/mg; microsomal CLint (in vitro [6]; microsomes): 25 µL/min/mg
O=C(NC[C@@H](O)CN1CCC(Oc2ccc(Cl)c(Cl)c2)CC1)c1c[nH]c(=O)c2ccccc12					> 70				IC50 [13]: 5010 nM
O=C(NC[C@@H](O)CN1CCC(Oc2ccc(Cl)c(Cl)c2)CC1)c1n[nH]c(=O)c2ccccc12	1.58		3.7		> 70				
O=C(Nc1ccccc1OCC(O)CN1CCC(Oc2ccc(Cl)c(Cl)c2)CC1)C1CCC1 (configuration not stated)	100								IC50 (Histamine H1 receptor [14]): 5010 nM; Ki [13]: 15.8 nM
CS(=O)(=O)c1ccc(C(=O)NC[C@@H](O)CN2CCC(Oc3ccc(Cl)c(Cl)c3)CC2)s1	251	> 70	2.9	100	> 70	20			hepatocyte CLint (in vitro [4]): 3 µL/min/1e6 cells
COc1cc(C(=O)NC[C@@H](O)CN2CCC(Oc3ccc(Cl)c(Cl)c3)CC2)ccc1N	3.98	> 70	3.1	63.1	> 70	18	251		clearance (in vivo [9]): 56 mL/min/kg; hepatocyte CLint (in vitro [12]): < 2 µL/min/1e6 cells; hepatocyte CLint (in vitro [4]): 6 µL/min/1e6 cells; Vd (in vivo [10]): 25 L/kg; half-life (in vivo [11]): 6.5 h; bioavailability [15]: 30%
COc1cccc(SC[C@@H](O)CN2CCC(Oc3ccc(Cl)c(Cl)c3)CC2)c1	126	> 70	> 4.5	20	> 70	49		17	
CN(C[C@@H](O)CN1CCC(Oc2ccc(Cl)c(Cl)c2)CC1)C(=O)c1c[nH]c(=O)c2ccccc12	2.51	> 70	3.2		> 70		2000		
N#Cc1cccc(S(=O)(=O)NC[C@@H](O)CN2CCC(Oc3ccc(Cl)c(Cl)c3)CC2)c1					> 70	13		7	
N#Cc1cccc(OCCCN2CCC(Oc3ccc(Cl)c(Cl)c3)CC2)c1	794		> 4.5	12.6	> 70	129		3	
O=C(NC[C@@H](O)CN1CCC(Oc2ccc(Cl)c(Cl)c2)CC1)n1c(=O)[nH]c2ccccc21	2.51		4.5		> 70		501		
N#Cc1cccc(OC[C@@H](O)CN2CCC(Oc3ccc(Cl)c(Cl)c3)CC2)c1	251		> 4.5	3.16	> 70	23		< 3	
